Measurements as given in US11512053B2, “Arginine methyltransferase inhibitors and uses thereof” (priority 2013, dated 2022).
Where a name gives a salt, the structure may show the parent alone. Read-outs that look alike come from different tables or passages of the source.

Columns and labels:
[1] = target: full-length human PRMT6 (Flag- and His-tagged) (Homo sapiens, UniProt Q96LA8); test: PRMT6 Biochemical Assay (3H-SAM Flashplate, peptide substrate); conditions: read-out: Biochemical IC50 PRMT6
Chain of full-length human PRMT6 (Flag- and His-tagged) (Q96LA8 with tags, fused parts or gaps): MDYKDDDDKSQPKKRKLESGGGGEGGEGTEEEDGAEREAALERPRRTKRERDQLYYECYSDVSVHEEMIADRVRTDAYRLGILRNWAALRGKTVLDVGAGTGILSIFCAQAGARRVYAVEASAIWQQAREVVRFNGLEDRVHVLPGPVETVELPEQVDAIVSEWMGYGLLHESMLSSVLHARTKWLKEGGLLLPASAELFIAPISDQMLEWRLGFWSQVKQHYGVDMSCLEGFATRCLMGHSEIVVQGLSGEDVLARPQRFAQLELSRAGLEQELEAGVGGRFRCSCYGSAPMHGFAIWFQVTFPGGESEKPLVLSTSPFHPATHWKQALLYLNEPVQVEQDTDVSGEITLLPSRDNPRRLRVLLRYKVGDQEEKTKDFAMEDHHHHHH
Summary of the method: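 Radiometric methyltransferase readout: tritium transfer onto a biotin-tagged histone H4 36-50 peptide bearing monomethyl K44 (75 nM), captured on streptavidin Flashplates after stopping with 400 uM unlabeled SAM. Enzyme is baculovirus-expressed Flag-PRMT6-His at 1 nM, given 30 min with compound at room temperature before adding 200 nM 3H-SAM and 250 nM cold SAM (pH 7.6 Bicine, 2% DMSO). Percent inhibition relative to max/min (1 mM SAH) controls, curve-fit to IC50.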

[2] = target: full-length human PRMT1 isoform 1 (GST-tagged) (Homo sapiens, UniProt Q99873); test: PRMT1 Biochemical Assay (3H-SAM Flashplate, peptide substrate)
Chain of full-length human PRMT1 isoform 1 (GST-tagged) (Q99873 with tags, fused parts or gaps): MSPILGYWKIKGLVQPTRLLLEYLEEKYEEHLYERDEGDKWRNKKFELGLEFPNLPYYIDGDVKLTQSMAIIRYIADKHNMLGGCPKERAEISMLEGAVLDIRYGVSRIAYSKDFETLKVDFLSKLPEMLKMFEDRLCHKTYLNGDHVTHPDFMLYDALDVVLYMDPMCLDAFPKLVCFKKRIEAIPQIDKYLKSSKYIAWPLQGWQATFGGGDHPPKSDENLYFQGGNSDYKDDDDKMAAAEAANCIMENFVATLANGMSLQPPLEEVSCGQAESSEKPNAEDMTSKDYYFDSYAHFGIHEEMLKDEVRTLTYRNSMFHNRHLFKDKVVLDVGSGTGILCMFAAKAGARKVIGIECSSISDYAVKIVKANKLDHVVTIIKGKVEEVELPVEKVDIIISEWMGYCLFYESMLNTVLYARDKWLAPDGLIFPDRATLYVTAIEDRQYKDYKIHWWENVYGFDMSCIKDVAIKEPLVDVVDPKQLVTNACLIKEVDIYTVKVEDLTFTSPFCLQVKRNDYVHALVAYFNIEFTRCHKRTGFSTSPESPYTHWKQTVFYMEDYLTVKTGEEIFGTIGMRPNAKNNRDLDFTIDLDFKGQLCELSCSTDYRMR
Summary of the method: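 Tritiated methyl transfer from 3H-SAM onto biotinylated peptide, captured on streptavidin Flashplates and counted. Baculovirus-expressed GST-PRMT1 and compound were preincubated 30 min at room temperature in Bicine buffer pH 7.6. Cold SAM at 300 uM final ended the reaction.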

[3] = single experiment or average of multiple experiments

SMILES	IC50 [1] [nM]	IC50 [1, 3] [nM]	IC50 [2] [nM]	IC50 [2, 3] [nM]
CCOC[C@H]1CC(c2n[nH]cc2CN(C)CCNC)C[C@H](COCC)C1 (stereo partly shown) [Compound 188]	1010 to 3000	1230	101 to 1000	275
CCOC[C@@H]1C[C@H](COCC)C[C@H](c2n[nH]cc2CN(C)CCNC)C1 [Compound 189]	1010 to 3000	1470	101 to 1000	108
CNCCN(C)Cc1c[nH]nc1C1CCC(=O)N(CCCOC)C1 (stereo not shown) [Compound 190]	101 to 1000	156	101 to 1000	124
CNCCN(C)Cc1c[nH]nc1C1CCC(=O)N(Cc2ccc(C(F)(F)F)cc2)C1 (stereo not shown) [Compound 191]	101 to 1000	107	< 100	50.4
CNCCN(C)Cc1c[nH]nc1[C@H]1CC[C@H](N(CC2CCOCC2)C(=O)CC(C)C)CC1 [Compound 192]	101 to 1000	173	101 to 1000	216
CCN(C(=O)CC1CCOCC1)[C@H]1CC[C@@H](c2n[nH]cc2CN(C)CCNC)CC1 [Compound 196]	101 to 1000	111	101 to 1000	149
CNCCN(C)Cc1c[nH]nc1[C@H]1CC[C@]2(CCCO2)OC1 [Compound 198]	3010 to 10000	8540	3010 to 10000	≥ 10000
CNCCN(C)Cc1n[nH]cc1[C@H]1CC[C@]2(CC1)CC(C)(C)CO2 [Compound 201]	101 to 1000		< 100	
CNCCN(C)Cc1cn(C)nc1[C@H]1CC[C@]2(CC1)CC(C)(C)CO2 [Compound 206, Methyl([1-methyl-3-[(5R,8S)-3,3-dimethyl-1-oxaspiro[4.5]decan-8-yl]-1H-pyrazol-4-yl]methyl)[2-(methylamino)ethyl]amine hydrochloride]	101 to 1000	207	< 100	19.5
CNCCN(C)Cc1c[nH]nc1[C@H]1CC[C@H](C(=O)NCCOc2ccccc2)CC1 [Compound 211]	< 100	11.4	< 100	8.28
CNCCN(C)Cc1c[nH]nc1[C@H]1CC[C@@H](C(=O)NCCOc2ccccc2)CC1 [Compound 212]	< 100	13.6	< 100	5.57
CNCCN(C)Cc1c[nH]nc1[C@H]1CC[C@H](C(=O)N(CCCOC)CCC(C)C)CC1 [Compound 213]	< 100	91.3	< 100	53.9
CNCCN(C)Cc1c[nH]nc1[C@H]1CC[C@@H](C(=O)N(CCCOC)CCC(C)C)CC1 [Compound 214]	< 100	50.5	< 100	19.8
CNCCN(C)Cc1c[nH]nc1[C@H]1CC[C@@H](C(=O)N(C)CC(C)C)CC1 [Compound 215]	< 100	30.6	< 100	14.1
CNCCN(C)Cc1c[nH]nc1C1CCC(F)(F)CC1 [Compound 216]	< 100	20.5	< 100	12.1
CNCCN(C)Cc1c[nH]nc1[C@H]1CC[C@@H](O)CC1 [Compound 217, 4-[4-([methyl[2-(methylamino)ethyl]amino]methyl)-1H-pyrazol-3-yl]cyclohexan-1-ol trifluoroacetate]	< 100	34	< 100	30.2
CNCCN(C)Cc1c[nH]nc1[C@H]1CC[C@@H](N(CCOc2ccccc2)C(=O)CCOC)CC1 [Compound 218]	< 100	30.3	< 100	41.7
CNCCN(C)Cc1c[nH]nc1[C@H]1CC[C@H](N(CCOc2ccccc2)C(=O)CCOC)CC1 [Compound 219]	< 100	31.9	< 100	8.96
CCC(=O)N(CCOc1ccccc1)[C@H]1CC[C@@H](c2n[nH]cc2CN(C)CCNC)CC1 [Compound 220]	< 100	18.4	< 100	9.29
CCC(=O)N(CCOc1ccccc1)[C@H]1CC[C@H](c2n[nH]cc2CN(C)CCNC)CC1 [Compound 221]	< 100	19.2	< 100	6.44
CNCCN(C)Cc1c[nH]nc1[C@H]1CC[C@@H](N(CCOc2ccccc2)C(=O)CC(C)C)CC1 [Compound 222]	< 100	21.3	< 100	43
CNCCN(C)Cc1c[nH]nc1[C@H]1CC[C@H](N(CCOc2ccccc2)C(=O)CC(C)C)CC1 [Compound 223]	< 100	15.8	< 100	6.65
CCN(C(=O)CCOc1ccccc1)[C@H]1CC[C@@H](c2n[nH]cc2CN(C)CCNC)CC1 [Compound 224]	< 100	18	< 100	9.27
CCN(C(=O)CCOc1ccccc1)[C@H]1CC[C@H](c2n[nH]cc2CN(C)CCNC)CC1 [Compound 225]	< 100	11.6	< 100	7.62
CNCCN(C)Cc1c[nH]nc1[C@H]1CC[C@H](C(=O)N(C)CC(C)C)CC1 [Compound 226]	< 100	41.5	< 100	33.1
CNCCN(C)Cc1c[nH]nc1[C@H]1CC[C@H](O)CC1 [Compound 227, 4-[4-([methyl[2-(methylamino)ethyl]amino]methyl)-1H-pyrazol-3-yl]cyclohexan-1-ol trifluoroacetate]	< 100	17.8	< 100	16.8
CNCCN(C)Cc1c[nH]nc1[C@H]1CC[C@@H](N(CCOc2ccccc2)C(=O)CCCOC)CC1 [Compound 228]	< 100	18.5	< 100	69
CNCCN(C)Cc1c[nH]nc1[C@H]1CC[C@H](N(CCOc2ccccc2)C(=O)CCCOC)CC1 [Compound 229]	< 100	29.1	< 100	10.8
CNCCN(C)Cc1c[nH]nc1[C@H]1CC[C@H](N(CCOC)C(=O)CCOc2ccccc2)CC1 [Compound 230]	< 100	23.1	< 100	13.5

More lines, now with the values ahead:

IC50 [1] [nM]	IC50 [1, 3] [nM]	IC50 [2] [nM]	IC50 [2, 3] [nM]	SMILES
< 100	95.1	< 100	28.4	CNCCN(C)Cc1c[nH]nc1[C@H]1CC[C@H](N(CC(C)C)C(=O)CC2CCOCC2)CC1 [Compound 193]
< 100	22.7	< 100	14.5	CNCCN(C)Cc1c[nH]nc1C1CCC(=O)CC1 [Compound 194]
< 100	51.7	< 100	14.4	CCN(C(=O)CC1CCOCC1)[C@H]1CC[C@H](c2n[nH]cc2CN(C)CCNC)CC1 [Compound 195]
< 100	10.7	< 100	8.27	CNCCN(C)Cc1c[nH]nc1[C@H]1CC[C@]2(CCN(Cc3cc(F)cc(F)c3)C2=O)CC1 [Compound 197]
< 100	36.5	< 100	16.8	CNCCN(C)Cc1c[nH]nc1C1CCC2(CCCC2)OC1 (stereo not shown) [Compound 199]
< 100		< 100		CNCCN(C)Cc1n[nH]cc1[C@H]1CC[C@@]2(CC1)CC(C)(C)CO2 [Compound 200, Methyl[2-(methylamino)ethyl]([4-[(5S,8S)-3,3-dimethyl-1-oxaspiro[4.5]decan-8-yl]-1H-pyrazol-3-yl]methyl)amine trifluoroacetic acid salt]
< 100	66.4	< 100	12.7	CCOCC1CC(c2n[nH]cc2CN(C)CCNC)CCC1(C)C (stereo not shown) [Compound 202]
< 100	36.8	< 100	28.4	CNCCN(C)Cc1n[nH]cc1[C@H]1CC[C@H](C(=O)NCCC(C)C)CC1 [Compound 203]
< 100	63.6	< 100	18.4	CNCCN(C)Cc1c[nH]nc1[C@H]1CC[C@@H](C(=O)NCCC(C)C)CC1 [Compound 204]
< 100	71.5	< 100	12.8	CNCCN(C)Cc1cn(C)nc1[C@H]1CC[C@@]2(CC1)CC(C)(C)CO2 [Compound 205, Methyl([1-methyl-3-[(5S,8S)-3,3-dimethyl-1-oxaspiro[4.5]decan-8-yl]-1H-pyrazol-4-yl]methyl)[2-(methylamino)ethyl]amine hydrochloride]
< 100		< 100		CN(CCN)Cc1c[nH]nc1[C@H]1CC[C@@]2(CC1)CC(C)(C)CO2 [Compound 207]
< 100	45.3	< 100	6.94	CN(CCN)Cc1c[nH]nc1[C@H]1CC[C@]2(CC1)CC(C)(C)CO2 [Compound 208]
< 100	52.1	< 100	27.8	CNCCN(C)Cc1c[nH]nc1[C@H]1CC[C@H](C(=O)N(C)CCC(C)C)CC1 [Compound 209]
< 100	31.7	< 100	13.1	CNCCN(C)Cc1c[nH]nc1[C@H]1CC[C@@H](C(=O)N(C)CCC(C)C)CC1 [Compound 210]
